Experimental data reported in publication PMC11714206, “Massively Parallel Screening of Toll/Interleukin‐1 Receptor (TIR)‐Derived Peptides Reveals Multiple Toll‐Like Receptors (TLRs)‐Targeting Immunomodulatory Peptides” (Advanced Science, 2024).

Target: T1, MAL^TIR (Homo sapiens, UniProt P58753)
T1 construct: MAL (residues 79–221); 6xHis; made in house; host or cells: E. coli BL21 (DE3)
Assay: T‐Surf phage library (P8 and P3) selection against MAL^TIR, four rounds, NGS read counts
Format: binding
Conditions: for P3_MAL Rank (after) / P3_MAL Rank (before): P3 library; for P8_MAL Rank (after) / P8_MAL Rank (before): P8 library; for Population: 4th round of selection against MAL TIR, share of NGS reads
How it was run: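 Coat TIR domain 5 µg mL^−1 overnight; block 0.2% BSA/PBS 1 h, 4 °C; add phage library 1 h, RT; wash ×4 PBS/0.5% Tween‐20; elute 100 mM HCl, neutralize Tris; amplify in TG1, PEG‐precipitate. Repeat to round 4; barcode PCR, NovaSeq, count reads.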

[1] = selection against MAL, rank after grouping
[2] = selection against MAL, rank before grouping
[3] = P3_MAL: rank by count after grouping
[4] = P3_MAL: rank by count before grouping
[5] = selection against MAL, rank by count after grouping
[6] = selection against MAL, rank by count before grouping
[7] = selection against MAL TIR, rank by count after grouping
[8] = selection against MAL TIR, rank by count before grouping
[9] = 4R selection against MAL, rank after grouping
[10] = 4R selection against MAL, rank before grouping
[11] = P8_MAL: rank by count after grouping
[12] = P8_MAL: rank by count before grouping
[13] = P3_MAL pool: P3 T-Surf phage library

T1 sequence (P58753 79-221): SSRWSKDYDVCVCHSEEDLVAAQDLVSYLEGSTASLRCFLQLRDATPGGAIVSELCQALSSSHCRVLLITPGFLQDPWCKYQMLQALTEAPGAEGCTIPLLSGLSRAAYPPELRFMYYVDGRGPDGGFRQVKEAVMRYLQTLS

FMSHLYQGLKIVAFL
P3_MAL Rank (after) [1]: 523 | P3_MAL Rank (before) [2]: 1204

FMSHLYQGLKNRGI
Rank (after) [3]: 165 | Rank (before) [4]: 499

FMSHLYQGLKNRGIFTF
Rank (after) [3]: 113 | Rank (before) [4]: 201

FMSHLYQGLLKGLIIT
P3_MAL Rank (after) [5]: 681 | P3_MAL Rank (before) [6]: 1202

FMSHLYRYLVQRGV
P3_MAL Rank (after) [1]: 546 | P3_MAL Rank (before) [2]: 1200

FTLAVQVRNLLVGAFI
P8_MAL Rank (after) [7]: 262 | P8_MAL Rank (before) [8]: 1099

FTLSVHVRNWLAGAFI
P8_MAL Rank (after) [9]: 606 | P8_MAL Rank (before) [10]: 1091

GCLYQAFARAGFKIFM
P3_MAL Rank (after) [5]: 707 | P3_MAL Rank (before) [6]: 1752

GCYERLVSLILRDTKV
Rank (after) [11]: 121 | Rank (before) [12]: 1571

GFFERLVRMILRDTKV
P8_MAL Rank (after) [7]: 263 | P8_MAL Rank (before) [8]: 1567

GFLSHLRHHLQAKDH
Rank (after) [3]: 127 | Rank (before) [4]: 275

GFLYQAFAREGLQIFM
Rank (after) [3]: 164 | Rank (before) [4]: 1739

GFYERQVSLVLGDTKV
P8_MAL Rank (after) [7]: 281 | P8_MAL Rank (before) [8]: 1569

GGFLSHLFDAFSVSR
P3_MAL Rank (after) [5]: 749 | P3_MAL Rank (before) [6]: 1758

GLSWGPYEWWMGLYDA
P8_MAL Rank (after) [5]: 716 | P8_MAL Rank (before) [6]: 1572

GPDTRRKFISFLYKEL
P3_MAL Rank (after) [5]: 683 | P3_MAL Rank (before) [6]: 1767

GRYGELFMTETDVREG
Rank (after) [3]: 403 | Rank (before) [4]: 1763

GSFREGLWRLLELSKK
Population [13]: 0.00639%

GSIKWRDQHTVHPQSS
P3_MAL Rank (after) [9]: 589 | P3_MAL Rank (before) [10]: 1776

GWFLNKLSQLILKKEK
Population [13]: 0.03% | Rank (after) [3]: 100 | Rank (before) [4]: 100

GWFREGLWRLLELSKK
P3_MAL Rank (after) [7]: 279 | P3_MAL Rank (before) [8]: 1756

HFFGFN*KAFWAKPAX
Population (P8_MAL pool: P8 T-Surf phage library): 0.00309%

HFFLDSTEKHSGRNQL
P8_MAL Rank (after) [7]: 277 | P8_MAL Rank (before) [8]: 2392

HFFWFKLKSILGETSF
P8_MAL Rank (after) [1]: 542 | P8_MAL Rank (before) [2]: 2394

HFFWIQLKAFWAKPA
Rank (after) [11]: 184 | Rank (before) [12]: 992

HFFWIQLKNILGENSF
P8_MAL Rank (after) [9]: 610 | P8_MAL Rank (before) [10]: 2417

HFFWVKLKSILGETSL
P8_MAL Rank (after) [9]: 592 | P8_MAL Rank (before) [10]: 2396

HFSRIQLKSRLGETSF
Rank (after) [11]: 444 | Rank (before) [12]: 2425

HFWWIPLKSILGETSF
P8_MAL Rank (after) [9]: 632 | P8_MAL Rank (before) [10]: 2423

HFYWILLKSILGETRL
P8_MAL Rank (after) [9]: 618 | P8_MAL Rank (before) [10]: 2426

HHKAAMAKRWRNMKN
Rank (after) [3]: 401 | Rank (before) [4]: 2818

HHKGSYGEALAEDEER
P3_MAL Rank (after) [9]: 580 | P3_MAL Rank (before) [10]: 2826

HHKGSYGEALHQFHSWV
P3_MAL Rank (after) [1]: 541 | P3_MAL Rank (before) [2]: 2842

HHNGSYCEALAEHKER
P3_MAL Rank (after) [1]: 486 | P3_MAL Rank (before) [2]: 2815

HHNSSYGEALAEHEKR
Rank (after) [3]: 167 | Rank (before) [4]: 2817

HHTGSYGQALAEHEKR
P3_MAL Rank (after) [9]: 584 | P3_MAL Rank (before) [10]: 2814

HLFCIQLKSILGETSF
P8_MAL Rank (after) [1]: 506 | P8_MAL Rank (before) [2]: 2428

HLLDKLRSNGISPFID
Rank (after) [3]: 461 | Rank (before) [4]: 2772

HLLKEFGKKLITAFKN
P3_MAL Rank (after) [9]: 646 | P3_MAL Rank (before) [10]: 2779

HLLKIVLEKFASHRSS
P8_MAL Rank (after) [9]: 614 | P8_MAL Rank (before) [10]: 2335

HLLKKPRNKRISPFIA
P3_MAL Rank (after) [5]: 692 | P3_MAL Rank (before) [6]: 2803

HLLKWKEALHQFHSWV
Population [13]: 0.00488%

HPKGSYREALAEHEKR
P3_MAL Rank (after) [1]: 503 | P3_MAL Rank (before) [2]: 2809

HQAFTGHLHRYLVQRGV
P3_MAL Rank (after) [7]: 192 | P3_MAL Rank (before) [8]: 979

HQAFWDRLWAKLKAPI
P8_MAL Rank (after) [1]: 546 | P8_MAL Rank (before) [2]: 2337

HQAFWERLWAKMQAPI
P3_MAL Rank (after) [9]: 659 | P3_MAL Rank (before) [10]: 2860

HQAFWKRPWAKLKPPT
Rank (after) [3]: 472 | Rank (before) [4]: 2884

HQAFWNRLWAKLKPP
P3_MAL Rank (after) [5]: 755 | P3_MAL Rank (before) [6]: 2873

HQALWALMWAKHQTPI
P3_MAL Rank (after) [9]: 623 | P3_MAL Rank (before) [10]: 2894

HQARWNRPWAKLKPPT
P3_MAL Rank (after) [9]: 626 | P3_MAL Rank (before) [10]: 2895

HQASWNRLWEQLKPRT
P3_MAL Rank (after) [1]: 505 | P3_MAL Rank (before) [2]: 2891

HQKGSYGEAPAEHEKR
Rank (after) [3]: 397 | Rank (before) [4]: 2901

HQSFWARTWAALIAPS
P3_MAL Rank (after) [5]: 724 | P3_MAL Rank (before) [6]: 2849

HQTFWDRLCAKLKAPI
P3_MAL Rank (after) [5]: 705 | P3_MAL Rank (before) [6]: 2898

HQWRNALTAAANLSGW
Population [13]: 0.00902%

IFCISCCLAVRKPSI
P8_MAL Rank (after) [7]: 241 | P8_MAL Rank (before) [8]: 2434

KCFWVTLLYALHRNPR
Rank (after) [3]: 465 | Rank (before) [4]: 3483

KDPDNYKFAIHERDFP
P3_MAL Rank (after) [7]: 207 | P3_MAL Rank (before) [8]: 3542

KELEKYQLAILERDFQ
P3_MAL Rank (after) [1]: 489 | P3_MAL Rank (before) [2]: 3596

KELLHKWKLALTQTPN
P3_MAL Rank (after) [9]: 621 | P3_MAL Rank (before) [10]: 3593

KERLHQWKLALTQAA
P3_MAL Rank (after) [1]: 526 | P3_MAL Rank (before) [2]: 3601

KERLHQWKLALTQAANLS
P3_MAL Rank (after) [5]: 766 | P3_MAL Rank (before) [6]: 3603

KERLHQWKLALTQAANLSGW
Population [13]: 0.00376% | Rank (after) [3]: 111 | Rank (before) [4]: 178

KERLHQWKLALTQAPI
P3_MAL Rank (after) [9]: 661 | P3_MAL Rank (before) [10]: 3604

KERPFGAQRAEKWRA
P3_MAL Rank (after) [5]: 736 | P3_MAL Rank (before) [6]: 3610

KERPFGAQRAEKWRTALT
Rank (after) [3]: 466 | Rank (before) [4]: 3611

KEVDGWRDALTQVASL
P3_MAL Rank (after) [7]: 196 | P3_MAL Rank (before) [8]: 3547

KEVEGWRDALAKVASP
P3_MAL Rank (after) [1]: 576 | P3_MAL Rank (before) [2]: 3557

KEVEGWRDALPHRYEP
P3_MAL Rank (after) [7]: 191 | P3_MAL Rank (before) [8]: 1095

KEVEGWRDALRKIANIF
Rank (after) [3]: 417 | Rank (before) [4]: 3560

KEVEGWRDALSSIASRP
Rank (after) [3]: 163 | Rank (before) [4]: 685

KEVEGWRDALTKAPI
P3_MAL Rank (after) [9]: 644 | P3_MAL Rank (before) [10]: 3576

KEVEGWRDALTQAAN
P3_MAL Rank (after) [9]: 599 | P3_MAL Rank (before) [10]: 3565

KEVEGWRQALEKAGKL
Rank (after) [3]: 118 | Rank (before) [4]: 386

KGLTEIADLKGKKCDR
P3_MAL Rank (after) [1]: 529 | P3_MAL Rank (before) [2]: 3531

KHCWDRLCYMVNDSSR
P3_MAL Rank (after) [5]: 721 | P3_MAL Rank (before) [6]: 3468

KHSNNDQKWAETASRK
P3_MAL Rank (after) [5]: 765 | P3_MAL Rank (before) [6]: 3469

KIILDTAARIWGWRQA
P3_MAL Rank (after) [7]: 227 | P3_MAL Rank (before) [8]: 3704

KIWGWRDALSRNPH
P3_MAL Rank (after) [5]: 762 | P3_MAL Rank (before) [6]: 3640
